Reference: PubChem BioAssay AID248 (DTP/NCI, 2004)
Toxic doses and inconclusive results are not listed. No stated cut-off is given here; in the data, active means T/C of 150% or more; inactive means T/C below 125%.

Test system: L1210 leukemia ip in BDF1 mice, survival T/C
Assay: NCI In Vivo Anticancer Drug Screen. Data for tumor model L1210 Leukemia (intraperitoneal) in B6D2F1 (BDF1) mice
Conditions: endpoint: mean survival time, higher = longer survival
Procedure, shortened: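 Ratio derived from survival: compound-dosed mice over vehicle-dosed mice, all bearing a transplantable tumor.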

[1] = dose: 25.0 mg/kg/injection, schedule: Q04DX002 (ip), vehicle: Klucel (hydroxypropylcellulose) (HPC)
[2] = dose: 100.0 mg/kg/injection, schedule: Q04DX002 (ip), vehicle: Klucel (hydroxypropylcellulose) (HPC)
[3] = dose: 100.0 mg/kg/injection, schedule: Q01DX001 (ip), vehicle: saline with Tween-80
[4] = dose: 200.0 mg/kg/injection, schedule: Q01DX001 (ip), vehicle: saline with Tween-80
[5] = dose: 400.0 mg/kg/injection, schedule: Q01DX001 (ip), vehicle: saline with Tween-80
[6] = dose: 100.0 mg/kg/injection, schedule: Q04DX003 (ip), vehicle: saline
[7] = dose: 200.0 mg/kg/injection, schedule: Q04DX003 (ip), vehicle: saline
[8] = dose: 400.0 mg/kg/injection, schedule: Q04DX003 (ip), vehicle: saline
[9] = dose: 100.0 mg/kg/injection, schedule: Q01DX009 (ip), vehicle: Klucel (hydroxypropylcellulose) (HPC)
[10] = dose: 100.0 mg/kg/injection, schedule: Q04DX003 (ip), vehicle: Klucel (hydroxypropylcellulose) (HPC)
[11] = dose: 200.0 mg/kg/injection, schedule: Q01DX009 (ip), vehicle: Klucel (hydroxypropylcellulose) (HPC)
[12] = dose: 200.0 mg/kg/injection, schedule: Q04DX003 (ip), vehicle: Klucel (hydroxypropylcellulose) (HPC)
[13] = dose: 400.0 mg/kg/injection, schedule: Q01DX009 (ip), vehicle: Klucel (hydroxypropylcellulose) (HPC)
[14] = dose: 400.0 mg/kg/injection, schedule: Q04DX003 (ip), vehicle: Klucel (hydroxypropylcellulose) (HPC)
[15] = dose: 50.0 mg/kg/injection, schedule: Q01DX009 (ip), vehicle: Klucel (hydroxypropylcellulose) (HPC)
[16] = dose: 100.0 mg/kg/injection, schedule: Q04DX002 (ip), vehicle: saline with Tween-80

Measured: T/C

OCCN(CC1C(c2ccccc2)C1c1ccccc1)C1CCCCC1 (stereo unspecified)
inactive: dose: 6.25 mg/kg/injection, schedule: Q04DX002 (ip), vehicle: Klucel (hydroxypropylcellulose) (HPC) 98 % of control | [1] 90 % of control | dose: 50.0 mg/kg/injection, schedule: Q04DX002 (ip), vehicle: Klucel (hydroxypropylcellulose) (HPC) 97 % of control | [2] 97 % of control

CCOC(=O)CSc1nc2ccccc2[nH]1
inactive: [3] 97 % of control | [4] 98 % of control | [5] 93 % of control

CCCCNC(=O)Nc1ccc(C)cc1
inactive: dose: 100.0 mg/kg/injection, schedule: Q01DX001 (ip), vehicle: carboxymethylcellulose (CMC) 100 % of control | dose: 200.0 mg/kg/injection, schedule: Q01DX001 (ip), vehicle: carboxymethylcellulose (CMC) 103 % of control | dose: 400.0 mg/kg/injection, schedule: Q01DX001 (ip), vehicle: carboxymethylcellulose (CMC) 97 % of control

COc1cccc(NC(=S)NN)c1
inactive: dose: 12.5 mg/kg/injection, schedule: Q04DX002 (ip), vehicle: Klucel (hydroxypropylcellulose) (HPC) 92 % of control | [1] 117 % of control

OCC1OC(OC2CCCCC2)C(O)C(O)C1O (stereo unspecified)
inactive: [6] 100 % of control | [7] 96 % of control | [8] 102 % of control

Cc1ccc([N+](=O)[O-])cc1N1CCNC1=O
inactive: [9] 104 % of control | [10] 102 % of control | [11] 102 % of control | [12] 98 % of control | [13] 100 % of control | [14] 101 % of control

Clc1ccc(NP(Br)(c2ccccc2)(c2ccccc2)c2ccccc2)cc1
inactive: dose: 75.0 mg/kg/injection, schedule: Q01DX001 (ip), vehicle: other 107 % of control | dose: 150.0 mg/kg/injection, schedule: Q01DX001 (ip), vehicle: other 104 % of control | dose: 300.0 mg/kg/injection, schedule: Q01DX001 (ip), vehicle: other 101 % of control

Cc1ccc(NC2=CCC(=O)OC2=O)cc1
inactive: dose: 25.0 mg/kg/injection, schedule: Q01DX009 (ip), vehicle: Klucel (hydroxypropylcellulose) (HPC) 93 % of control | dose: 25.0 mg/kg/injection, schedule: Q04DX003 (ip), vehicle: Klucel (hydroxypropylcellulose) (HPC) 100 % of control | [15] 88 % of control | dose: 50.0 mg/kg/injection, schedule: Q04DX003 (ip), vehicle: Klucel (hydroxypropylcellulose) (HPC) 105 % of control | [9] 90 % of control | [10] 97 % of control | [11] 97 % of control | [12] 97 % of control | [13] 88 % of control | [14] 92 % of control

Cc1[nH]c(=O)nc(Br)c1[N+](=O)[O-]
inactive: [15] 101 % of control | [9] 107 % of control | [10] 97 % of control | [11] 98 % of control | [12] 95 % of control

CC(C)NNC(=O)C(N)CCC(=O)O (stereo unspecified)
inactive: dose: 25.0 mg/kg/injection, schedule: Q01DX009 (ip), vehicle: saline 105 % of control | dose: 25.0 mg/kg/injection, schedule: Q04DX003 (ip), vehicle: saline 117 % of control | dose: 50.0 mg/kg/injection, schedule: Q01DX009 (ip), vehicle: saline 91 % of control | dose: 50.0 mg/kg/injection, schedule: Q04DX003 (ip), vehicle: saline 107 % of control | dose: 100.0 mg/kg/injection, schedule: Q01DX009 (ip), vehicle: saline 98 % of control | [6] 91 % of control | dose: 200.0 mg/kg/injection, schedule: Q01DX009 (ip), vehicle: saline 109 % of control | [7] 90 % of control | dose: 400.0 mg/kg/injection, schedule: Q01DX009 (ip), vehicle: saline 118 % of control | [8] 98 % of control

O=C(O)c1cccc2cccc(-c3c4ccc(=O)c(O)c-4oc4c(O)c(O)ccc34)c12
inactive: dose: 100.0 mg/kg/injection, schedule: Q04DX003 (ip), vehicle: saline with Tween-80 91 % of control | dose: 200.0 mg/kg/injection, schedule: Q04DX003 (ip), vehicle: saline with Tween-80 92 % of control | dose: 400.0 mg/kg/injection, schedule: Q04DX003 (ip), vehicle: saline with Tween-80 89 % of control

CCOC(=O)c1[nH]c(C)c(C(=O)OCC)c1-c1ccc(OC)cc1
inactive: dose: 100.0 mg/kg/injection, schedule: Q01DX001 (ip), vehicle: Klucel (hydroxypropylcellulose) (HPC) 100 % of control | [10] 96 % of control | dose: 200.0 mg/kg/injection, schedule: Q01DX001 (ip), vehicle: Klucel (hydroxypropylcellulose) (HPC) 93 % of control | [12] 108 % of control | dose: 400.0 mg/kg/injection, schedule: Q01DX001 (ip), vehicle: Klucel (hydroxypropylcellulose) (HPC) 98 % of control | [14] 96 % of control

CCCCCCCCCCCCCCCCCCNC(=O)Nc1cccc(NC(C)=O)c1
inactive: [9] 91 % of control | [11] 88 % of control | [13] 98 % of control

CNC(=O)c1ccc[n+](CC(=O)Nc2ccccc2)c1
inactive: [6] 92 % of control | [7] 102 % of control

Cc1cc(OCC(N)=O)ccc1Cl
inactive: [2] 103 % of control | dose: 200.0 mg/kg/injection, schedule: Q04DX002 (ip), vehicle: Klucel (hydroxypropylcellulose) (HPC) 92 % of control | dose: 400.0 mg/kg/injection, schedule: Q04DX002 (ip), vehicle: Klucel (hydroxypropylcellulose) (HPC) 98 % of control

O=C(NCS(=O)(=O)O)OCc1ccccc1
inactive: dose: 100.0 mg/kg/injection, schedule: Q01DX001 (ip), vehicle: other 98 % of control | dose: 100.0 mg/kg/injection, schedule: Q04DX003 (ip), vehicle: other 96 % of control | dose: 200.0 mg/kg/injection, schedule: Q01DX001 (ip), vehicle: other 104 % of control | dose: 200.0 mg/kg/injection, schedule: Q04DX003 (ip), vehicle: other 102 % of control | dose: 400.0 mg/kg/injection, schedule: Q01DX001 (ip), vehicle: other 96 % of control | dose: 400.0 mg/kg/injection, schedule: Q04DX003 (ip), vehicle: other 96 % of control

ClCC1(CCl)OCCO1
inactive: dose: 75.0 mg/kg/injection, schedule: Q01DX001 (ip), vehicle: carboxymethylcellulose (CMC) 95 % of control | dose: 150.0 mg/kg/injection, schedule: Q01DX001 (ip), vehicle: carboxymethylcellulose (CMC) 104 % of control

CC(=O)OC1OCC(COC(=O)c2ccc([N+](=O)[O-])cc2)C1OC(=O)c1ccc([N+](=O)[O-])cc1 (stereo unspecified)
inactive: dose: 100.0 mg/kg/injection, schedule: Q01DX001 (ip), vehicle: saline 92 % of control | dose: 200.0 mg/kg/injection, schedule: Q01DX001 (ip), vehicle: saline 92 % of control | dose: 400.0 mg/kg/injection, schedule: Q01DX001 (ip), vehicle: saline 95 % of control

CC1(CCC(=O)O)SCSCS1
inactive: [10] 97 % of control | [12] 90 % of control | [14] 92 % of control

Cc1ccc(Nc2c3ccccc3nc3ccccc23)c(C)c1
inactive: [10] 96 % of control | [12] 100 % of control

CCS[P+](NC1CCCCC1)(NC1CCCCC1)NC1CCCCC1
inactive: dose: 25.0 mg/kg/injection, schedule: Q01DX009 (ip), vehicle: saline with Tween-80 94 % of control | dose: 25.0 mg/kg/injection, schedule: Q04DX002 (ip), vehicle: saline with Tween-80 103 % of control | dose: 50.0 mg/kg/injection, schedule: Q01DX009 (ip), vehicle: saline with Tween-80 100 % of control | dose: 50.0 mg/kg/injection, schedule: Q04DX002 (ip), vehicle: saline with Tween-80 98 % of control | [16] 88 % of control

NC(=O)C1NC(=O)NC1=O (stereo unspecified)
inactive: dose: 100.0 mg/kg/injection, schedule: Q01DX009 (ip), vehicle: saline with Tween-80 88 % of control | dose: 200.0 mg/kg/injection, schedule: Q01DX009 (ip), vehicle: saline with Tween-80 93 % of control | dose: 400.0 mg/kg/injection, schedule: Q01DX009 (ip), vehicle: saline with Tween-80 97 % of control

CC(=N/Nc1ccc([N+](=O)[O-])cc1[N+](=O)[O-])/C(C)=C/C1C=CCCC1(C)C (stereo unspecified)
inactive: [16] 100 % of control | dose: 200.0 mg/kg/injection, schedule: Q04DX002 (ip), vehicle: saline with Tween-80 103 % of control | dose: 400.0 mg/kg/injection, schedule: Q04DX002 (ip), vehicle: saline with Tween-80 96 % of control

CCC(O)(/C(=N/Nc1ccc([N+](=O)[O-])cc1[N+](=O)[O-])c1ccccc1)c1ccccc1 (stereo unspecified)
inactive: [3] 94 % of control | [4] 89 % of control | [5] 89 % of control
